Experimental data published in patent US11292807B2 (OCEANS LTD., priority 2015, dated 2022).
Where two headings read alike, the source gives them in different places.

Assays:
MDA-MB [1] = settings: MDA-MB
A549 (lung carcinoma) = experiment: CIMA assay (colorimetric indicator of metabolic activity), cell viability, A549
[2] = system: SKOV3 (ovarian adenocarcinoma); experiment: CIMA assay, cell viability, SKOV3
[3] = system: CCD1079SK (fibroblast, noncancerous but proliferating); experiment: CIMA assay, cell viability, CCD1079SK; settings: CCD
[4] = CIMA assay, cell viability, CCD1079SK; settings: human, Average cell viability, CCD
[5] = system: THP-1 (acute monocytic leukemia); experiment: CIMA assay, cell viability, THP-1
PC3 = experiment: CIMA assay, cell viability, PC3
[6] = system: U373 (glioblastoma-astrocytoma); experiment: CIMA assay, cell viability, U373
Description: Stock solutions of the extracts were prepared in dimethylsulfoxide (DMSO) at 10 mg/mL and stored in 200 μl aliquots at −20° C. until analysis. This preparation ensured that the DMSO delivered to cells in culture never exceeded 1%.
Prepared extracts were assessed following chronic exposure conditions in which cells were seeded at 2×10^3 cells/well (96 well-plate) and incubated with test compounds for 72 h. Each compound was evaluated over a range of concentrations (0, 10, 25, 50 or 100 μg/ml). Cell proliferation was initially assessed using a standard colorimetric indicator of metabolic activity (CIMA) assay. In this assay, tetrazole reduction was evaluated as a measure of metabolic function that evaluates mitochondrial activity to determine the extent of cell proliferation within a culture. This assay is based on the reduction of yellow tetrazolium salt to purple formazan by mitochondrial reductases enzyme in viable cells, resulting in a color changed that confers a change in absorbance.

MDA-MB [7] = experiment: cells; settings: Homo sapiens, read-out: Average cell viability, MDA-MB

## CC/C=C\C/C=C\C/C=C\C/C=C\C/C=C\CCCC(=O)OCC(COC1OC(CO)C(O)C(O)C1O)OC(=O)CCC/C=C\C/C=C\C/C=C\C/C=C\C/C=C\CC (stereo not shown) [Compound 7, MGDG C20:5/C20:5]
MDA-MB [1]; sample at 1 ug/mL
  MDA-MB AVG: 1.16
MDA-MB [1]; sample at 10 ug/mL
  MDA-MB AVG: 1.13
MDA-MB [1]; sample at 50 ug/mL
  MDA-MB AVG: 0.30
MDA-MB [1]; sample at 100 ug/mL
  MDA-MB AVG: 0.27
MDA-MB [1]; 1 ug/mL
  Fold change in viability AVG: 1.16
MDA-MB [1]; 10 ug/mL
  Fold change in viability AVG: 1.13
MDA-MB [1]; 50 ug/mL
  Fold change in viability AVG: 0.30
MDA-MB [1]; 100 ug/mL
  Fold change in viability AVG: 0.27
A549 (lung carcinoma); A549, sample at 1 ug/mL
  A549 AVG: 0.72
A549 (lung carcinoma); A549, sample at 10 ug/mL
  A549 AVG: 0.65
A549 (lung carcinoma); A549, sample at 50 ug/mL
  A549 AVG: 0.64
A549 (lung carcinoma); A549, sample at 100 ug/mL
  A549 AVG: 0.40
A549 (lung carcinoma); A549, 1 ug/mL
  Fold change in viability AVG: 0.72
A549 (lung carcinoma); A549, 10 ug/mL
  Fold change in viability AVG: 0.65
A549 (lung carcinoma); A549, 50 ug/mL
  Fold change in viability AVG: 0.64
A549 (lung carcinoma); A549, 100 ug/mL
  Fold change in viability AVG: 0.40
A549 (lung carcinoma); Homo sapiens, A549, read-out: Average cell viability, A549, 1 ug/mL
  viability at 1 µg/mL: 61%
A549 (lung carcinoma); Homo sapiens, A549, read-out: Average cell viability, A549, 10 ug/mL
  viability at 10 µg/mL: 56%
A549 (lung carcinoma); Homo sapiens, A549, read-out: Average cell viability, A549, 50 ug/mL
  viability at 50 µg/mL: 55%
A549 (lung carcinoma); Homo sapiens, A549, read-out: Average cell viability, A549, 100 ug/mL
  viability at 100 µg/mL: 34%
[2]; Homo sapiens, SK-OV-3, read-out: Average cell viability, SKOV, 1 ug/mL
  viability at 1 µg/mL: 126%
[2]; Homo sapiens, SK-OV-3, read-out: Average cell viability, SKOV, 10 ug/mL
  viability at 10 µg/mL: 113%
[2]; Homo sapiens, SK-OV-3, read-out: Average cell viability, SKOV, 50 ug/mL
  viability at 50 µg/mL: 95%
[2]; Homo sapiens, SK-OV-3, read-out: Average cell viability, SKOV, 100 ug/mL
  viability at 100 µg/mL: 46%
[2]; SKOV, 1 ug/mL
  Fold change in viability AVG: 1.36
[2]; SKOV, 10 ug/mL
  Fold change in viability AVG: 1.21
[2]; SKOV, 50 ug/mL
  Fold change in viability AVG: 1.02
[2]; SKOV, 100 ug/mL
  Fold change in viability AVG: 0.49
[3]; 1 ug/mL
  Fold change in viability AVG: 1.13
[3]; 10 ug/mL
  Fold change in viability AVG: 1.06
[3]; 50 ug/mL
  Fold change in viability AVG: 0.25
[3]; 100 ug/mL
  Fold change in viability AVG: 0.19
[4]; CCD1079SK fibroblast cells (noncancerous, proliferating), 1 ug/mL
  viability at 72 h, 1 ug/mL: 103%
[4]; CCD1079SK fibroblasts (noncancerous, proliferating), 10 ug/mL
  viability at 72 h, 10 ug/mL: 97%
[4]; CCD1079SK fibroblasts (noncancerous, proliferating), 50 ug/mL
  viability at 72 h, 50 ug/mL: 23%
[4]; CCD1079SK fibroblasts (noncancerous, proliferating), 100 ug/mL
  viability at 72 h, 100 ug/mL: 17%
[5]; Homo sapiens, THP-1, read-out: Average cell viability, THP-1, 1 ug/mL
  viability at 1 µg/mL: 108%
[5]; Homo sapiens, THP-1, read-out: Average cell viability, THP-1, 10 ug/mL
  viability at 10 µg/mL: 102%
[5]; Homo sapiens, THP-1, read-out: Average cell viability, THP-1, 50 ug/mL
  viability at 50 µg/mL: 52%
[5]; Homo sapiens, THP-1, read-out: Average cell viability, THP-1, 100 ug/mL
  viability at 100 µg/mL: 50%
[5]; THP-1, sample at 1 ug/mL
  THP-1 AVG: 1.17
[5]; THP-1, sample at 10 ug/mL
  THP-1 AVG: 1.16
[5]; THP-1, sample at 50 ug/mL
  THP-1 AVG: 0.59
[5]; THP-1, sample at 100 ug/mL
  THP-1 AVG: 0.57
[5]; THP-1, 1 ug/mL
  Fold change in viability AVG: 1.17
[5]; THP-1, 10 ug/mL
  Fold change in viability AVG: 1.16
[5]; THP-1, 50 ug/mL
  Fold change in viability AVG: 0.59
[5]; THP-1, 100 ug/mL
  Fold change in viability AVG: 0.57
PC3; Homo sapiens, PC-3, read-out: Average cell viability, PC3, 1 ug/mL
  viability at 1 µg/mL: 107%
PC3; Homo sapiens, PC-3, read-out: Average cell viability, PC3, 10 ug/mL
  viability at 10 µg/mL: 103%
PC3; Homo sapiens, PC-3, read-out: Average cell viability, PC3, 50 ug/mL
  viability at 50 µg/mL: 14%
PC3; Homo sapiens, PC-3, read-out: Average cell viability, PC3, 100 ug/mL
  viability at 100 µg/mL: 12%
PC3; PC3, sample at 1 ug/mL
  PC3 AVG: 1.11
PC3; PC3, sample at 10 ug/mL
  PC3 AVG: 1.07
PC3; PC3, sample at 50 ug/mL
  PC3 AVG: 0.14
PC3; PC3, sample at 100 ug/mL
  PC3 AVG: 0.13
PC3; PC3, 1 ug/mL
  Fold change in viability AVG: 1.11
PC3; PC3, 10 ug/mL
  Fold change in viability AVG: 1.07
PC3; PC3, 50 ug/mL
  Fold change in viability AVG: 0.14
PC3; PC3, 100 ug/mL
  Fold change in viability AVG: 0.13
[6]; Homo sapiens, U373 MG, read-out: Average cell viability, U373, 1 ug/mL
  viability at 1 µg/mL: 120%
[6]; Homo sapiens, U373 MG, read-out: Average cell viability, U373, 10 ug/mL
  viability at 10 µg/mL: 108%
[6]; Homo sapiens, U373 MG, read-out: Average cell viability, U373, 50 ug/mL
  viability at 50 µg/mL: 6%
[6]; Homo sapiens, U373 MG, read-out: Average cell viability, U373, 100 ug/mL
  viability at 100 µg/mL: 5%
[6]; U373, sample at 1 ug/mL
  U373 AVG: 1.22
[6]; U373, sample at 10 ug/mL
  U373 AVG: 1.10
[6]; U373, sample at 50 ug/mL
  U373 AVG: 0.06
[6]; U373, sample at 100 ug/mL
  U373 AVG: 0.05
[6]; U373, 1 ug/mL
  Fold change in viability AVG: 1.22
[6]; U373, 10 ug/mL
  Fold change in viability AVG: 1.10
[6]; U373, 50 ug/mL
  Fold change in viability AVG: 0.06
[6]; U373, 100 ug/mL
  Fold change in viability AVG: 0.05
MDA-MB [7]; 1 ug/mL
  viability at 1 µg/mL: 106%
MDA-MB [7]; 10 ug/mL
  viability at 10 µg/mL: 104%
MDA-MB [7]; 50 ug/mL
  viability at 50 µg/mL: 27%
MDA-MB [7]; 100 ug/mL
  viability at 100 µg/mL: 24%

## CCCCCCCCCCCCOS(=O)(=O)[O-].[Na+] [cont-SDS]
MDA-MB [1]; 250 ug/ml
  In vitro activity against cancer cell lines, MDA-MB AVG: 0.16
A549 (lung carcinoma); A549, 250 ug/ml
  In vitro activity against cancer cell lines, A549 AVG: 0.13
[2]; SKOV, 250 ug/ml
  In vitro activity against cancer cell lines, SKOV AVG: 0.10
[5]; THP-1, 250 ug/ml
  In vitro activity against cancer cell lines, THP-1 AVG: 0.18
PC3; PC3, 250 ug/ml
  In vitro activity against cancer cell lines, PC3 AVG: 0.08
[6]; U373, 250 ug/ml
  In vitro activity against cancer cell lines, U373 AVG: 0.05
